Literature values, collected in US10716771B2, “Pharmaceutical composition for preventing or treating immune diseases or inflammatory diseases, containing biguanide derivative compound as active ingredient” (THE CATHOLIC UNIVERSITY OF KOREA INDUSTRY-ACADEMIC …, priority 2013, dated 2020).

Test system: TNF-α
Details: stated as known; cited from earlier work

CN(C)C(=N)N=C(N)N [Metformin]
effect of blocking TNF-α: slight effect
